We go through one molecule from patent US11291659B2, “P38 kinase inhibitors reduce DUX4 and downstream gene expression for the treatment of FSHD” (Fulcrum Therapeutics, Inc., priority 2017, dated 2022).

The subject of assay [1] is DUX4-fl mRNA. Description: DUX4-fl mRNA by nested qPCR in FSHD myotubes. To be noted: 10, 100, and 1000 nM vs DMSO. It counts as cell-based, Human. How it is done:
In a 6 well plate, 450 μL Buffer RLT Plus was added. Lysate was homogenized by transfer the lysate to a gDNA Eliminator spin column placed in a 2 mL collection tube (supplied), centrifuged for 30 s at ≥8000×g (≥10,000 rpm) and discarded column while saving the flow-through. Then 250 μL of Ethanol (35% final) was added to the flow-through, and mixed well by pipetting, not centrifuged. Then samples were transferred, including any precipitate that may have formed, to an RNeasy MinElute spin column placed in a 2 mL collection tube (supplied). Then centrifuged for 15 s at […]. Flow-through was discarded or collected for Protein precipitation. 700 μL Buffer RW1 to the RNeasy MinElute spin column was added then centrifuge for 15 s at ≥8000×g. and discard the flow-through. DNAse treatment was performed by gently mixing 10 μL DNAseI with 70 μL of Buffer RDD and added directly to the column, incubated at room temperature for 20 min. Then, 700 μL Buffer RW1 (per manufactures specification) to the RNeasy MinElute spin column, centrifuged for 15 s at ≥8000×g. and the flow-through discarded. 500 μL Buffer RPE was added to the RNeasy MinElute spin column centrifuged for 15 s at ≥8000×g and discarded the flow-through. […]
cDNA preparation. […] 10 seconds then read plate on QuantStudio7 as per manufactures instruction (Thermo). […]

In assay [2] the test system is FSHD myotubes. Description: Myotube formation / fusion, MHC and DAPI staining. Type of assay: cell-based, Human. Particulars: FSHD myotubes; 10, 100, and 1000 nM. How it is done: On day 0, change to differentiation media. Remove plates from the incubator and aspirate the growth medium, Wash once with PBS, 100 μL for 96-wells and 1 mL for a 6-well plate, Add 100 μL or 2 mL of differentiation medium per well, 96- or 6-well respectively. Add antisense oligonucleotides or drug at the desire concentration and put back in the incubator. Fusion should start within day 1-2. Incubate for 3-4 days.
Briefly, cells were fixed in 4% paraformaldehyde and […] for 10 min at room temperature. Cells were permeabilized with PBST (1×PBS solution with 0.1% Triton X-100) before blocking with 10% Normal Donkey Serum or 3% BSA (NDS) in PBST. […] DUX4 was detected by immunocytochemistry using the E5-5 antibody in differentiated FSHD myotubes. Activated Caspase-3 was detected cell signaling antibody that we're using for ICC, Asp175 (https://www.cellsignal.com/products/primary-antibodies/cleaved-caspase-3-asp175-antibody/9661).
Immortalized FHSD myotubes were differentiated and treated with DMSO vehicle control or FTX-1821 at concentrations of 1 μM, 0.33 μM, 0.11 μM, or 0.037 μM. […] The nuclei in myotubes were quantified according to MHC staining (FIG. 8B).

As to `Cn1c(=O)c(Oc2ccc(F)cc2F)cc2cnc(NC(CCO)CCO)nc21` [Pamapimod, 6-(2,4-difluorophenoxy)-2-((1,5-dihydroxypentan-3-yl)amino)-8-methylpyrido[2,3-d]pyrimidin-7(8H)-one], the “DUX4-fl mRNA levels normalized to POLR2A mRNA” value in assay [1] was “dose-dependently reduced”. Also, the differentiation into myotubes result in assay [2] is listed as “without impacting”.
